Experimental data from US20080260726A1, “Organic Compounds” (priority 2005, published 2008).

Legend:
[1] = system: mucus secretion in differentiated HBECs; assay: ATP-γS-induced mucin secretion in differentiated HBECs, enzyme-linked lectin assay (ELLA); format: cell-based, human
Description: The effect of siRNA knockdown of CTSC expression on mucin secretion in differentiated HBECs is examined using the CTSC SMARTPOOL at different concentrations (0.3-10 nM). Adenosine triphosphate is used as a mucin secretagogue and secreted mucin is measured using an enzyme-linked lectin assay (ELLA; Kemp, Sugar and Jackson Am. J. Respir. Cell Mol. Biol. (2004) 31: 446-455). HBECs (16.5×10^4 cells per insert from donor 2F1S78) are transfected and cultured using the 9 day differentiation model as described in Example 2. At day 9 (6 days ALI) HBEC inserts are exposed to 100 μM ATP-γS for 10 minutes and supernatants are removed for analysis by ELLA. ATP-γS-induced mucus secretion is inhibited at all CTSC siRNA SMARTPOOL concentrations, but is unaffected by either cyclophilin B siRNA or Lipofectamine alone.
The effect of Compound A on mucus secretion in the 9 day model is examined by adding the compound at various concentrations (0.1-10 μM) to the apical surface in minimal medium containing 0.1% dimethyl sulphoxide (DMSO) and incubating for 30 minutes at 37° C., followed by 10 minutes exposure to 100 μM ATP-γS.

[2] = system: goblet cell formation in HBECs; assay: Goblet cell formation with Compound A in basolateral medium, 45M1 and AB/PAS staining; format: cell-based, human
Description: The siRNA duplexes are transfected into HBECs using […]. Transfection medium is prepared by mixing OPTI-MEM® I reduced serum medium (Invitrogen Corp.), siRNA duplex (5× final concentration) and Lipofectamine 2000™ (5× final concentration), incubating at room temperature for 30 minutes, then diluting 1:5 in antibiotic free differentiation medium (DIFF-AB medium; bronchial epithelial basal medium and Dulbeccos modified eagles medium [50:50] plus bronchial epithelial growth medium SingleQuots [bovine pituitary extract, insulin, hydrocortisone, all-trans retinoic acid, transferrin, epinephrine, tri-iodothyronine and human epidermal growth factor at the recommended concentrations, but no tri-iodothyronine and gentamycin/amphotericin B], all obtained from BioWhittaker) prior to addition to HBECs. For these experiments an abbreviated version of the HBEC model is used in which HBECs are maintained as submerged cultures for 3 days and then transferred to ALI for 6 days. Cells from a passage 2 (P2) stock of HBEC donor 2F1578 are cultured as described in Atherton et al. Am. J. Physiol. Lung Cell Mol. Physiol. (2003) 285: L730-L739 to approximately 85% confluence before harvesting for transfection. After trypsinisation and recovery by centrifugation, cells are resuspended at a density of 16.5×10^4 cells per ml in DIFF-AB medium containing siRNA duplex (10 nM) and Lipofectamine 2000™ (1 μl per ml) and seeded onto 12 well Transwell Clear inserts. One ml of HBEC/DIFF-AB medium/siRNA/lipofectamine 2000™ mix is deposited onto each insert and 1 ml of DIFF-AB medium is added to the basolateral chamber of each insert. After 24 hours (day 1 of submerged culture), all media is aspirated (apically and basolaterally) and replaced with 0.5 ml apically and 1 ml basolaterally of DIFF-AB medium containing 50 μg per ml gentamycin but no amphotericin B (DIFF-AB+G). On day 3, DIFF-AB+G medium is aspirated from the apical and basolateral surfaces and HBECs are cultured at ALI with DIFF-AB+G medium containing 1 ng per ml IL13. All cells are incubated at 37° C., 5% CO2 and 95% relative humidity. The basolateral medium is aspirated at days 5 and 7 and replaced with 1 ml DIFF-AB+G medium containing IL13. In addition the apical surface is rinsed with 0.5 ml phosphate buffered saline (PBS) to remove accumulated cell debris/mucus. Cells are harvested for total RNA extraction at days 3, 5, 7 and 9 as described above, and for goblet cell analysis by histology at day 9. For histology, inserts are fixed by the addition of 0.5 ml 10% neutral buffered formalin (NBF) to the apical surface followed by 1 ml NBF to the basolateral surface. After 24 hours of fixation the inserts are bisected and processed to RALwax through graded industrial methylated spirit (IMS) and chloroform. Both halves of the insert are embedded on edge using fresh RALwax. The paraffin blocks are sectioned at […] and stained with 45M1 antibody (an anti-MUCSAC antibody obtained from Lab-Vision Neomarkers) and alcian blue/haematoxylin and eosin (AB/H&E) according to standard histological protocols to enable detection of mucin and discrimination of individual cells by nuclear staining. The stained slides are examined microscopically.
[…] The effect on goblet cell formation is examined histologically by 45M1 and AB/PAS staining per unit length of epithelium.
A modest effect at 10 μM is seen, with no effect at 0.1 and 1 μM.

With `CCCS(=O)(=O)Nc1ccc(Cc2cc3cnc(C#N)nc3n2CC(C)(C)C)cc1` [Compound A, propane-1-sulfonic acid {4-[2-cyano-7-(2,2-dimethyl-propyl)-7H-pyrrolo[2,3-d]pyrimidin-6-ylmethyl]-phenyl}-amide] the “mucus secretion (Vehicle = 100.00)” value ([1]; Compd A (0.1 μM), 30 minutes, then 100 μM ATP-γS 10 minutes) was 203.51, the “mucus secretion (Vehicle = 100.00)” value ([1]; Compd A (10 μM) only, no ATP, 30 minutes apical, 9 day model) was 88.99 and the “mucus secretion (Vehicle = 100.00)” value ([1]; Compd A (10 μM), first column so headed, 30 minutes, then 100 μM ATP-γS 10 minutes) was 120.18. For the same molecule, the “mucus secretion (Vehicle = 100.00)” value ([1]; Compd A (10 μM), second column so headed, 30 minutes, then 100 μM ATP-γS 10 minutes) was 177.02, the “mucus secretion (in words)” value ([1]; Compound A 0.1-10 μM, 100 μM ATP-γS) was “dose-dependently inhibits” and the “45M1 and AB/PAS staining per unit length of epithelium” value ([2]; Table 6, 9 day model (6 days ALI), 0.1 uM + IL13) was “no effect”. For the same molecule, the “45M1 and AB/PAS staining per unit length of epithelium” value ([2]; Table 6, 9 day model (6 days ALI), 0.1 uM + IL13, listed as Compd A) was 2.533, the “45M1 and AB/PAS staining per unit length of epithelium” value ([2]; Table 6, 9 day model (6 days ALI), 1 uM + IL13) was “no effect” and the “45M1 and AB/PAS staining per unit length of epithelium” value ([2]; Table 6, 9 day model (6 days ALI), 1 uM + IL13, listed as Compd A) was 2.621. For the same molecule, the “45M1 and AB/PAS staining per unit length of epithelium” value ([2]; Table 6, 9 day model (6 days ALI), 10 uM + IL13) was “modest effect”, the “45M1 and AB/PAS staining per unit length of epithelium” value ([2]; Table 6, 9 day model (6 days ALI), 10 uM + IL13, listed as Compd A) was 1.424 and the “45M1 and AB/PAS staining per unit length of epithelium” value ([2]; Table 6, 9 day model (6 days ALI), 10 uM, no IL13) was 0.300. For the same molecule, the “45M1 and AB/PAS staining per unit length of epithelium” value ([2]; Table 7, 11 days at ALI, 0.1 uM + IL-13 1 ng/ml) was 3.609, the “45M1 and AB/PAS staining per unit length of epithelium” value ([2]; Table 7, 11 days at ALI, 1 uM + IL-13 1 ng/ml) was 3.700 and the “45M1 and AB/PAS staining per unit length of epithelium” value ([2]; Table 7, 11 days at ALI, 10 uM + IL-13 1 ng/ml) was “greater inhibition”. The “45M1 and AB/PAS staining per unit length of epithelium” value ([2]; Table 7, 11 days at ALI, 10 uM + IL-13 1 ng/ml, listed as Compd A) was 0.886 and the “45M1 and AB/PAS staining per unit length of epithelium” value ([2]; Table 7, 11 days at ALI, 10 uM, no IL-13) was 0.153.
